From patent US11299467B2 (Antabio SAS, priority 2017, dated 2022)
Like-named read-outs stand apart in the source and are kept apart here.

Key:
[1] = test system: K. pneumoniae NTBC104; assay: In vivo efficacy, mouse thigh infection with K. pneumoniae NTBC104; settings: meropenem 30 mg/kg plus compound 30 mg/kg, 9 hours post infection
Procedure: Mice were infected in the thigh with K. pneumoniae NTBC104. […] The MIC of meropenem in the presence of 8 ug/mL of the compound of Example 2 is 4 ug/mL.
At the end of the experiment (9 hours post infection) the animals were sacrificed and the numbers of colony forming units (CFUs) were measured in order to quantify bacterial load (extent of the infection).

[2] = molecular target: VIM-2 (Escherichia coli, UniProt Q5U7L7); assay: In vitro enzyme inhibition assay, purified VIM-2 (imipenem hydrolysis, UV 299 nm); format: biochemical
Procedure: (§1) Enzyme inhibition assays were performed using purified MBL enzymes (NDM-1; VIM-1; VIM-2; IMP-1) in 10 mM HEPES buffer pH 7.5 in 96-well microtiter plates. Imipenem (300 μM) was used as substrate and its hydrolysis was followed at UV 299 nm during 10 mn every 30 seconds using a Perkin Elmer Envision UV fluorescence plate reader.
(§2) Mean Ki values from multiple experiments are presented below.
(§3) Studies were undertaken to compare the compounds of the invention with structurally similar compounds (“Comp. x”). Experiments were conducted as described above.

[3] = molecular target: NDM-1 (Klebsiella pneumoniae, UniProt C7C422); assay: In vitro enzyme inhibition assay, purified NDM-1 (imipenem hydrolysis, UV 299 nm); format: biochemical
Sequence of NDM-1 (C7C422 29-270, looked up): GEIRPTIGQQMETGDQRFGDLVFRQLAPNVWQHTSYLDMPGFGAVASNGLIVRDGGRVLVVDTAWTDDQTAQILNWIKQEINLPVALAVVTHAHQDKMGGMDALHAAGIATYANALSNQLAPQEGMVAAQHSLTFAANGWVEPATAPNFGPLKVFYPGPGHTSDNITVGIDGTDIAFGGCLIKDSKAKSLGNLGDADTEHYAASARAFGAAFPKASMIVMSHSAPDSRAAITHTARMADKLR
Procedure: as §1, §2, §3

[4] = molecular target: VIM-1 (Pseudomonas aeruginosa, UniProt A0A0F7KYQ8); assay: In vitro enzyme inhibition assay, purified VIM-1 (imipenem hydrolysis, UV 299 nm); format: biochemical
Procedure: as §1, §2, §3

[5] = molecular target: IMP-1 (Serratia marcescens, UniProt P52699); assay: In vitro enzyme inhibition assay, purified IMP-1 (imipenem hydrolysis, UV 299 nm); format: biochemical
Sequence of IMP-1 (P52699 19-246, looked up, species assumed): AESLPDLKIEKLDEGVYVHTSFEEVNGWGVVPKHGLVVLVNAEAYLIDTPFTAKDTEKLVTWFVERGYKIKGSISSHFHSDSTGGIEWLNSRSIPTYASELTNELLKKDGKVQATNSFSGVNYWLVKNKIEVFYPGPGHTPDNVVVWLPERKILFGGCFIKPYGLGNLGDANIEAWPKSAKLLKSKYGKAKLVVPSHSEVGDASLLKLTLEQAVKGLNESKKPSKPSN
Procedure: as §1, §2, §3

[6] = Plasma stability of test compounds in human plasma; format: in vitro ADME; settings: 1 μM, 37° C.
Procedure: [table] Test compound and QC compound were incubated at a final concentration of 1 μM in plasma at 37° C. in shaker water bath with gentle shaking. At predetermined time points, reaction was terminated with 200 μL of acetonitrile containing internal standard and centrifuged at 4000×RCF, 4° C. for 20 minutes. Supernatant was separated and analyzed by LC-MS/MS. The following equation was used to determine the percentage remaining of test/QC compound following the procedure above: […]

[7] = mean Ki from multiple experiments, imipenem 300 μM, Cheng-Prusoff from IC50, read-out: Ki VIM-2
[8] = mean Ki from multiple experiments, imipenem 300 μM, Cheng-Prusoff from IC50, read-out: Ki NDM-1
[9] = mean Ki from multiple experiments, imipenem 300 μM, Cheng-Prusoff from IC50, read-out: Ki VIM-1
[10] = mean Ki from multiple experiments, imipenem 300 μM, Cheng-Prusoff from IC50, read-out: Ki IMP-1
[11] = comparative study bands, read-out: Ki NDM-1 (comparative study)
[12] = comparative study bands, read-out: Ki VIM-1 (comparative study)
[13] = comparative study bands, read-out: Ki IMP-1 (comparative study)
[14] = comparative study bands, read-out: Ki VIM-2 (comparative study)

Row | Ki [2, 7] [nM] | Ki [3, 8] [nM] | Ki [4, 9] [nM] | Ki [5, 10] [nM] | Stability in human plasma, % remaining ([6]; after 2 hours) [% remaining after 2 hours] | Ki [3, 11] [nM] | Ki [4, 12] [nM] | Ki [5, 13] [nM] | Ki [2, 14] [nM] | Stability in human plasma, % remaining ([6]; after 5 hours) [% remaining after 5 hours] | SMILES | Log10 reduction in CFUs compared to meropenem alone [1] [Log10]
1 | 20 to 50 | < 50 | 200 to 500 | 1000 to 10000 | – | – | – | – | – | – | N=C(N)NNC(=O)Nc1c(F)cc(S(=O)(=O)Nc2scnc2C(=O)O)cc1F [Example 26, 5-[[3,5-difluoro-4-(guanidinocarbamoylamino)phenyl]sulfonylamino]thiazole-4-carboxylic acid] | 1.8
2 | – | – | – | – | 29 | 100 to 300 | 300 to 500 | 600 to 5000 | – | – | COc1cc(S(=O)(=O)Nc2scnc2C(=O)O)ccc1NC(=O)CN [Comp. E, reference compound] | –
3 | – | – | – | – | – | < 30 | 300 to 500 | 600 to 5000 | 100 to 150 | 0 | NCC(=O)Nc1c(F)cc(S(=O)(=O)Nc2scnc2C(=O)O)cc1F [Comp. B, reference compound] | –
4 | < 20 | 50 to 200 | < 200 | 500 to 1000 | 89 | 30 to 100 | < 150 | 150 to 600 | < 20 | – | COc1cc(S(=O)(=O)Nc2scnc2C(=O)O)ccc1NC(=O)CNC(=N)N [Example 16, 5-[[4-[(2-guanidinoacetyl)amino]-3-methoxy-phenyl]sulfonylamino]thiazole-4-carboxylic acid] | –
5 | < 20 | 50 to 200 | < 200 | < 500 | – | 30 to 100 | < 150 | < 150 | < 20 | – | N=C(N)NCC(=O)Nc1ccc(S(=O)(=O)Nc2scnc2C(=O)O)cc1OC(F)(F)F [Example 18, 5-[[4-[(2-guanidinoacetyl)amino]-3-(trifluoromethoxy)phenyl]sulfonylamino] thiazole-4-carboxylic acid] | –
6 | – | – | – | – | – | 30 to 100 | 300 to 500 | 150 to 600 | 20 to 50 | – | NCC(=O)Nc1ccc(S(=O)(=O)Nc2scnc2C(=O)O)cc1OC(F)(F)F [Comp. G, reference compound] | –
7 | 20 to 50 | < 50 | < 200 | 500 to 1000 | – | – | – | – | – | – | N=C(N)CCC(=O)Nc1ccc(S(=O)(=O)Nc2scnc2C(=O)O)cc1F [Example 35, 5-[[4-[(4-amino-4-imino-butanoyl)amino]-3-fluoro-phenyl]sulfonylamino]thiazole-4-carboxylic acid] | –
8 | 20 to 50 | 50 to 200 | < 200 | < 500 | – | 30 to 100 | 150 to 300 | 150 to 600 | 20 to 50 | – | N#Cc1cc(S(=O)(=O)Nc2scnc2C(=O)O)ccc1NC(=O)CNC(=N)N [Example 5, 5-[[3-cyano-4-[(2-guanidinoacetyl)amino]phenyl]sulfonylamino]thiazole-4-carboxylic acid] | –
9 | 50 to 150 | 200 to 2000 | 200 to 500 | 1000 to 10000 | – | – | – | – | – | – | N=C(N)Nc1ccc(S(=O)(=O)Nc2scnc2C(=O)O)cc1 [Example 44, 5-[(4-guanidinophenyl)sulfonylamino]thiazole-4-carboxylic acid] | –
10 | 20 to 50 | 50 to 200 | 200 to 500 | 1000 to 10000 | – | – | – | – | – | – | N=C(N)NCCC(=O)Nc1ccc(S(=O)(=O)Nc2scnc2C(=O)O)cc1F [Example 19, 5-[[3-fluoro-4-(3-guanidinopropanoylamino)phenyl]sulfon-ylamino]thiazole-4-carboxylic acid] | –
11 | 20 to 50 | < 50 | 500 to 1000 | < 500 | – | – | – | – | – | – | N#CNC(=N)NCC(=O)Nc1ccc(S(=O)(=O)Nc2scnc2C(=O)O)cc1F [Example 34, 5-[[4-[[2-[(N-cyanocarbamimidoyl)amino]acetyl]amino]-3-fluoro-phenyl]sulfonylamino]thiazole-4-carboxylic acid] | –
12 | – | – | – | – | – | 100 to 300 | 500 to 1000 | 600 to 5000 | 100 to 150 | – | NCC(=O)Nc1ncc(S(=O)(=O)Nc2scnc2C(=O)O)cc1F [Comp. C, reference compound] | –
13 | < 20 | < 50 | < 200 | 500 to 1000 | – | – | – | – | – | – | N=C(N)NCCOC(=O)Nc1ccc(S(=O)(=O)Nc2scnc2C(=O)O)cc1F [Example 27, 5-[[3-fluoro-4-(2-guanidinoethoxycarbonylamino)phenyl]sulfonylamino]thiazole-4-carboxylic acid] | –
14 | 50 to 150 | 50 to 200 | 200 to 500 | 1000 to 10000 | – | – | – | – | – | – | N=C(N)NCc1ccc(S(=O)(=O)Nc2scnc2C(=O)O)cc1F [Example 46, 5-[[3-fluoro-4-(guanidinomethyl)phenyl]sulfonylamino]thiazole-4-carboxylic acid] | –
15 | 20 to 50 | 50 to 200 | 200 to 500 | 1000 to 10000 | – | – | – | – | – | – | O=C(CNC1=NCCN1)Nc1ccc(S(=O)(=O)Nc2scnc2C(=O)O)cc1F [Example 32] | –
16 | 20 to 50 | < 50 | < 200 | 1000 to 10000 | – | – | – | – | – | – | N=C(N)NCC(=O)Nc1ncc(S(=O)(=O)Nc2scnc2C(=O)O)s1 [Example 23, 5-[[2-[(2-guanidinoacetyl)amino]thiazol-5-yl]sulfonylamino]thiazole-4-carboxylic acid] | –
17 | 20 to 50 | 50 to 200 | 200 to 500 | 1000 to 10000 | – | 100 to 300 | 300 to 500 | 600 to 5000 | 20 to 50 | – | N=C(N)NCC(=O)Nc1ncc(S(=O)(=O)Nc2scnc2C(=O)O)cc1F [Example 3, 5-[[5-fluoro-6-[(2-guanidinoacetyl)amino]-3-pyridyl]sulfonylamino]thiazole-4-carboxylic acid] | –
18 | 50 to 150 | < 50 | 200 to 500 | 1000 to 10000 | – | – | – | – | – | – | O=C(CCC1=NCCN1)Nc1ccc(S(=O)(=O)Nc2scnc2C(=O)O)cc1F [Example 36, 5-[[4-[3-(4,5-dihydro-1H-imidazol-2-yl)propanoylamino]-3-fluoro-phenyl]sulfonylamino]thiazole-4-carboxylic acid] | –
19 | 20 to 50 | < 50 | < 200 | < 500 | – | – | – | – | – | – | N=C(N)NCCSC(=O)Nc1ccc(S(=O)(=O)Nc2scnc2C(=O)O)cc1F [Example 31, 5-[[3-fluoro-4-(2-guanidinoethylsulfanyl-carbonylamino)phenyl]sulfonylamino]thiazole-4-carboxylic acid] | –
20 | < 20 | 50 to 200 | < 200 | < 500 | – | 30 to 100 | < 150 | < 150 | < 20 | – | N=C(N)NCC(=O)Nc1ccc(S(=O)(=O)Nc2scnc2C(=O)O)cc1Cl [Example 17, 5-[[3-chloro-4-[(2-guanidinoacetyl)amino]phenyl]sulfonylamino]thiazole-4-carboxylic acid] | –
21 | 50 to 150 | < 50 | 200 to 500 | 1000 to 10000 | – | – | – | – | – | – | CNC(=N)CC(=O)Nc1ccc(S(=O)(=O)Nc2scnc2C(=O)O)cc1F [Example 22, 5-[[3-fluoro-4-[[3-imino-3-(methylamino)propanoyl]amino]phenyl]sulfonylamino]thiazole-4-carboxylic acid] | –
22 | < 20 | 50 to 200 | < 200 | < 500 | – | – | – | – | – | – | N=C(N)NC(=O)Nc1ccc(S(=O)(=O)Nc2scnc2C(=O)O)cc1F [Example 28, 5-[[4-(carbamimidoylcarbamoyl-amino)-3-fluoro-phenyl]sulfonylamino] thiazole-4-carboxylic acid] | –
